In US6924302B2, “Substituted triazole diamine derivatives as kinase inhibitors” (Ortho McNeil Pharmaceutical, Inc., priority 2000, dated 2005):

Legend:
MDA-MB-231 = test: Inhibition of Cell Proliferation (14C-thymidine incorporation), MDA-MB-231; type: cell-based; settings: Homo sapiens, MDA-MB-231 cell line
Experimental: (§1) The ability of a test compound to inhibit the proliferation of cell growth was determined by measuring incorporation of ^14C-labelled thymidine into newly synthesized DNA within the cells. […] Cells were trypsinized and counted and 3000-8000 cells were added to each well of a 96-well CytoStar tissue culture treated scintillating microplate (Amersham #RPNQ0160) in complete medium in a volume of 100 μl. Cells were incubated for 24 hours in complete medium at 37° C. in an atmosphere containing 5% CO2. Next, 1 μl of test compound in 100% DMSO was added to the wells of the plate. DMSO only was added to control wells. Cells were incubated for 24 more hours in complete medium at 37° C. in an atmosphere containing 5% CO2. […] The plate was incubated for 24 hours at 37° C. plus 5% CO2 in drug plus ^14C-thymidine. The contents of the plate were discarded into a ^14C radioactive waste container by inverting the plate and the plate was washed twice with 200 μl PBS. 200 μl of PBS is added to each well. […] The degree of methyl ^14C-thymidine incorporation was quantified on a Packard Top Count.

[1] = tested on: SK-OV-3 ovarian adenocarcinoma; test: Inhibition of Cell Proliferation (14C-thymidine incorporation), SK-OV-3; type: cell-based; settings: Homo sapiens, SK-OV-3 cell line
Experimental: as §1

[2] = tested on: PC-3 prostate adenocarcinoma; test: Inhibition of Cell Proliferation (14C-thymidine incorporation), PC-3; type: cell-based; settings: Homo sapiens, PC-3 cell line
How it was run: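 Proliferation was gauged as incorporation of 14C-labelled thymidine into DNA. Plated cells were preincubated 24 h, given test compound for 24 h, then pulsed with 0.2 uCi/well methyl 14C-thymidine for 24 h in the continued presence of drug before washing and counting.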

FGF-R2 = FGF-R2 (Homo sapiens, UniProt P21802); test: Kinase Selectivity Assay FGF-R2; type: biochemical; settings: Tables 2a-2k
How it was run: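 Radiometric ^33P-γ-ATP transfer to a biotinylated peptide substrate captured on streptavidin plates; enzyme in 50 mM Tris-HCl pH 8.0, 0.1% BSA, 1% DMSO, 1 h at 30° C.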

[3] = biological target: T1, HER2 (human epidermal growth factor receptor-2) (Homo sapiens, UniProt P04626); test: Kinase Selectivity Assay HER2; type: biochemical; settings: Kinase Selectivity, Tables 2a-2k; read-out: HER2 Kinase IC50
T1 construct: begins at amino acid 676 followed by the remainder of the HER2 cytoplasmic domain; polyhistidine (N)
How it was run: (§2)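 Biotinylated peptide phosphorylation measured as ^33P-γ-ATP incorporation on streptavidin plates after 1 h at 30° C, 1% DMSO final, enzyme in 50 mM Tris-HCl pH 8.0, 0.1% BSA. Compounds in duplicate at 8 concentrations, 100 uM to 10 pM. IC50 from percent inhibition versus log concentration.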

[4] = biological target: T2, CDK2 in complex with cyclin A (Homo sapiens, UniProt P24941); test: Kinase Selectivity Assay CDK2; type: biochemical; settings: Table 1
T2 construct: purchased Upstate Biotech
How it was run: as §2

FGF-R2, sequence (P21802 22-821, species assumed): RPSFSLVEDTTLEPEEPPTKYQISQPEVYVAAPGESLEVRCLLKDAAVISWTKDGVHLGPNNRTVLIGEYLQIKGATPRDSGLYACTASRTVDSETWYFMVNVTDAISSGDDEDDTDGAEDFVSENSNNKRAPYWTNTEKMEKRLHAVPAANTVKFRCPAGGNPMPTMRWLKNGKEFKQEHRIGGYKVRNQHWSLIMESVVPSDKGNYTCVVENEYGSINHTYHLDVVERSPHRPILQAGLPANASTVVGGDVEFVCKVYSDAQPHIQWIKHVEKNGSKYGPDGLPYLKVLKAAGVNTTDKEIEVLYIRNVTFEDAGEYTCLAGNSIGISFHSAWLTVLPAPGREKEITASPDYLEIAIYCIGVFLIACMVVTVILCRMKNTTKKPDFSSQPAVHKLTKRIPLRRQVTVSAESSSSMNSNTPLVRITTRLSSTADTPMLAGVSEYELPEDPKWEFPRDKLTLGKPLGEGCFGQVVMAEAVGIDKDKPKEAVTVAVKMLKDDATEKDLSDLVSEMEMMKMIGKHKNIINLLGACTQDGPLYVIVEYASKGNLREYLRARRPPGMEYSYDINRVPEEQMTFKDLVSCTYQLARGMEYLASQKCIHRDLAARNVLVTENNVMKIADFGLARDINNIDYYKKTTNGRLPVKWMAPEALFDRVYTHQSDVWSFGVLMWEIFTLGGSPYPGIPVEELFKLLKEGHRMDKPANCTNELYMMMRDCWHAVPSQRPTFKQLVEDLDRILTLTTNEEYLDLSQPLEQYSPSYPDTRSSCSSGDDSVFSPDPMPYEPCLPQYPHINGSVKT
T1 sequence (P04626 676-1255 limits assumed): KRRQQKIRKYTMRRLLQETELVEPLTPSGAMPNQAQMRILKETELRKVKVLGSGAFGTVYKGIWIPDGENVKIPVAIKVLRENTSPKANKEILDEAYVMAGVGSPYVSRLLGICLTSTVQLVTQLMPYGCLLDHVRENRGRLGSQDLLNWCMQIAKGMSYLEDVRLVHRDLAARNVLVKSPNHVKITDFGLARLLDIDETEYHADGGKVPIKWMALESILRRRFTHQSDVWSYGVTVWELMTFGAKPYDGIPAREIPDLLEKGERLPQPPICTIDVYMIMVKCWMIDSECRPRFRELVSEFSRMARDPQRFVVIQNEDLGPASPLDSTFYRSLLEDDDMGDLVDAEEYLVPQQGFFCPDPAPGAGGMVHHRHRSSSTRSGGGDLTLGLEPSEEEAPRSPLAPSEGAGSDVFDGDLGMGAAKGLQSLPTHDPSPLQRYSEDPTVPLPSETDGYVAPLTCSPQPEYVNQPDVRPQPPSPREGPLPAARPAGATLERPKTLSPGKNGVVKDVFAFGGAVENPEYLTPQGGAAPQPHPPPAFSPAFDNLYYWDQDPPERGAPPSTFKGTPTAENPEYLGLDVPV

| SMILES | IC50 (MDA-MB-231) [nM] | IC50 [1] [nM] | IC50 [2] [nM] | IC50 (FGF-R2) [nM] | IC50 [3] [nM] | IC50 [4] [nM] |
| --- | --- | --- | --- | --- | --- | --- |
| Nc1nc(Nc2ccc(S(N)(=O)=O)cc2)nn1C(=O)c1c(F)cccc1F [Cpd 1, 4-[[5-amino-1-(2,6-difluorobenzoyl)-1H-1,2,4-triazol-3-yl]amino]-benzenesulfonamide] | 587 | 750 | 119 |  |  |  |
| Nc1nc(Nc2ccc(S(N)(=O)=O)cc2)nn1C(=O)c1cccs1 [Cpd 14, 4-[[5-amino-1-(2-thienylcarbonyl)-1H-1,2,4-triazol-3-yl]amino]-benzenesulfonamide] | 756 | 727 | 157 | 27 |  |  |
| Nc1nc(Nc2ccc(S(=O)(=O)N3CCCCC3)cc2)nn1C(=O)c1cccs1 [Cpd 23, N^3-[4-(1-piperidinylsulfonyl)phenyl]-1-(2-thienylcarbonyl)-1H-1,2,4-triazole-3,5-diamine] | 868 | 1420 | 859 |  |  |  |
| CCc1ccc(C(=O)n2nc(Nc3ccc(S(N)(=O)=O)cc3)nc2N)s1 [Cpd 32, 4-[[5-amino-1-[(5-ethyl-2-thienyl)carbonyl]-1H-1,2,4-triazol-3-yl]amino]-benzenesulfonamide] | 131 |  | 30 |  | 9 |  |
| Cc1nc(C)c(C(=O)n2nc(Nc3ccc(S(N)(=O)=O)cc3)nc2N)s1 [Cpd 34, 4-[[5-amino-1-[(2,4-dimethyl-5-thiazolyl)carbonyl]-1H-1,2,4-triazol-3-yl]amino]-benzenesulfonamide] | 898 |  | 626 |  |  |  |
| Nc1nc(Nc2ccc(S(N)(=O)=O)cc2)nn1C(=O)c1sccc1Br [Cpd 35, 4-[[5-amino-1-[(3-bromo-2-thienyl)carbonyl]-1H-1,2,4-triazol-3-yl]amino]-benzenesulfonamide] | 1140 |  | 231 |  |  |  |
| Nc1nc(Nc2ccc(S(N)(=O)=O)cc2)nn1C(=O)C1CCCC1 [Cpd 38, 4-[[5-amino-1-(cyclopentylcarbonyl)-1H-1,2,4-triazol-3-yl]amino]-benzenesulfonamide] | 6760 |  | 2750 |  |  |  |
| Nc1nc(Nc2ccc(S(N)(=O)=O)cc2)nn1C(=O)C1CCCCC1 [Cpd 39, 4-[[5-amino-1-(cyclohexylcarbonyl)-1H-1,2,4-triazol-3-yl]amino]-benzenesulfonamide] | 2910 |  | 625 |  |  |  |
| CNS(=O)(=O)c1ccc(Nc2nc(N)n(C(=O)c3c(F)ccc(C)c3F)n2)cc1 [Cpd 81, 4-[[5-amino-1-(2,6-difluoro-3-methylbenzoyl)-1H-1,2,4-triazol-3-yl]amino]-N-methyl-benzenesulfonamide] |  | 348 | 25 | 268 |  | 1 |
